The record followed here is the supplement of paper PMC11061612.

What all share (test): Bliss excess, mean over the matrix (fraction); higher = more synergy
The subject of assay [1] is G-402 (Other Solid Carcinomas). The method, boiled down: (§1)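 After 24 hours at 37°C and 5% CO2 in 1536-well plates, cells in DMEM/F12 or RPMI plus 10% FBS received two-drug dose matrices for 72 hours. Viability came from CellTiter-Glo 2.0 luminescence and was scaled as inhibition, anchored at 0 by vehicle wells and at 1 by blank wells. Combination Emax is taken as the second-highest inhibition in the matrix, and Bliss excess as the observed combination effect less EA + EB − EA·EB, with EA and EB the single-agent effects.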

In assay [2] the test system is huH-1 (Hepatocellular Carcinoma). The method, boiled down:
as §1

Assay [3] deals with NCI-H1703 (Squamous Cell Lung Carcinoma). Put shortly: as §1
The test system of assay [4] is MDA-MB-436 (Breast Carcinoma). The method, boiled down:
as §1

Assay [5] relates to LS-411N (Colorectal Carcinoma). Put shortly: as §1
In assay [6] the test system is RH-41 (Rhabdomyosarcoma). The method, boiled down:
as §1

For assay [7], the system named is NCI-H441 (Lung Adenocarcinoma). Put shortly:
as §1

Assay [8] has as its system NCI-H2228 (Lung Adenocarcinoma). The method, boiled down:
as §1

The test system of assay [9] is KYSE-140 (Esophageal Squamous Cell Carcinoma). Put shortly: as §1
The test system of assay [10] is KP-N-YN (Neuroblastoma). Put shortly: as §1
Assay [11] has as its system OACp4C (Esophageal Adenocarcinoma). Put shortly: as §1
Assay [12] has as its system A2780 (Ovarian Carcinoma). The method, boiled down: as §1
The subject of assay [13] is CA46 (Burkitt's Lymphoma). The method, boiled down: as §1
Assay [14] deals with A204 (Rhabdomyosarcoma). Put shortly:
as §1

Assay [15] concerns Jurkat (T-Lymphoblastic Leukemia). The method, boiled down:
as §1

Assay [16] deals with UACC-812 (Breast Carcinoma). Put shortly:
as §1

Assay [17] deals with WM1552C (Melanoma). Put shortly: as §1
The test system of assay [18] is ESO26 (Esophageal Adenocarcinoma). Put shortly:
as §1

For assay [19], the system named is MHH-ES-1 (Ewing's Sarcoma). Put shortly: as §1
The subject of assay [20] is LU-165 (Small Cell Lung Carcinoma). The method, boiled down: as §1

Turning to `CC1(C)CCC(CN2CCN(c3ccc(C(=O)NS(=O)(=O)c4ccc(NCC5CCOCC5)c([N+](=O)[O-])c4)c(Oc4cnc5[nH]ccc5c4)c3)CC2)=C(c2ccc(Cl)cc2)C1` [Venetoclax] + COc1cc(Nc2ncc3c(n2)-c2ccc(Cl)cc2C(c2c(F)cccc2OC)=NC3)ccc1C(=O)O [Alisertib] (first compound max 1 µM, 7x7, partner max 10 µM), the Bliss excess in [1] was -0.0116; in assay [2], -0.02; in [3] it was 0.0636; in [4], -0.0299; in assay [5], -0.0329; in [6], 0.135. The Bliss excess is -0.0511 in assay [7]; -0.0413 in assay [8]; 0.0471 in assay [9]; 0.0886 in assay [10]; 0.0112 in [11]; -0.0602 in assay [12]. Also, the Bliss excess in assay [13] is -0.017; in assay [14] it was -0.0088; in assay [15], 0.165; in [16] it was -0.0157; in [17], -0.0613; in [18] it was -0.003. Moreover, the Bliss excess turned out to be 0.0931 in assay [19] and 0.027 in assay [20].

For the compound `CC1(C)CCC(CN2CCN(c3ccc(C(=O)NS(=O)(=O)c4ccc(NCC5CCOCC5)c([N+](=O)[O-])c4)c(Oc4cnc5[nH]ccc5c4)c3)CC2)=C(c2ccc(Cl)cc2)C1` [Venetoclax] + C[C@@H]1COCCN1C2=NC(=NC(=C2)C3(CC3)[S@](=N)(=O)C)C4=C5C=CNC5=NC=C4 [AZD6738] (first compound max 1 µM, 7x7, partner max 10 µM), the Bliss excess in assay [1] is -0.0004; in assay [2] it was -0.045; in assay [3], -0.0216; in assay [4], -0.0167; in assay [5] it was -0.0311; in [6] it was 0.0355. Moreover, the Bliss excess in assay [7] is -0.0483; in [8], -0.0361; in assay [9], -0.0185; in [10], -0.0619; in [11], -0.0418; in assay [12], -0.0548. Further, the Bliss excess is 0.0093 in assay [13]; -0.0355 in assay [14]; 0.0361 in [15]; 0.0003 in assay [16]; -0.0603 in assay [17]; -0.0101 in assay [18]. Besides, the Bliss excess in [19] was 0.0077; in [20], -0.117.

For `CC1(C)CCC(CN2CCN(c3ccc(C(=O)NS(=O)(=O)c4ccc(NCC5CCOCC5)c([N+](=O)[O-])c4)c(Oc4cnc5[nH]ccc5c4)c3)CC2)=C(c2ccc(Cl)cc2)C1` [Venetoclax] + C[C@@H](Nc1cc(F)cc(F)c1)c1cc(C(=O)N(C)C)cc2c(=O)cc(N3CCOCC3)oc12 [AZD8186] (first compound max 1 µM, 7x7, partner max 3 µM), the Bliss excess in assay [1] is -0.0612; in assay [2] it was -0.0265; in [3], 0.0037; in assay [4], -0.0092; in assay [5], 0.0099; in [6] it was 0.0587. In addition, the Bliss excess in assay [7] was -0.0304; in [8], 0.0129; in [9], -0.0149; in assay [10], 0.104; in assay [11], 0.0104; in assay [12], -0.0138. The Bliss excess was 0.0323 in [13]; -0.0152 in [14]; 0.0084 in assay [15]; -0.0319 in [16]; -0.0157 in [17]; -0.0277 in assay [18]. Moreover, the Bliss excess was -0.0248 in assay [19] and -0.0042 in assay [20].

Consider `CC1(C)CCC(CN2CCN(c3ccc(C(=O)NS(=O)(=O)c4ccc(NCC5CCOCC5)c([N+](=O)[O-])c4)c(Oc4cnc5[nH]ccc5c4)c3)CC2)=C(c2ccc(Cl)cc2)C1` [Venetoclax] + Cc1cc2ncnn2cc1Nc1ncc2c(n1)n(C1CCOCC1)c(=O)n2C [AZD7648] (first compound max 1 µM, 7x7, partner max 10 µM), for which the Bliss excess is -0.0359 in [1]; -0.0511 in assay [2]; 0.0396 in assay [3]; -0.04 in assay [4]; -0.0184 in assay [5]; -0.0007 in assay [6]. Besides, the Bliss excess in assay [7] is -0.0437; in assay [8], -0.0072; in assay [9], -0.0044; in assay [10], -0.0085; in assay [11], -0.0027; in [12], -0.03. The Bliss excess was -0.0454 in assay [13]; -0.0172 in [14]; 0.0164 in [15]; 0.0286 in assay [16]; -0.0571 in assay [17]; -0.0336 in [18]. Moreover, the Bliss excess in [19] was -0.0189; in [20], -0.0259.

In the case of `CC1(C)CCC(CN2CCN(c3ccc(C(=O)NS(=O)(=O)c4ccc(NCC5CCOCC5)c([N+](=O)[O-])c4)c(Oc4cnc5[nH]ccc5c4)c3)CC2)=C(c2ccc(Cl)cc2)C1` [Venetoclax] + Cn1cnc2c(F)c(Nc3ccc(Br)cc3Cl)c(C(=O)NOCCO)cc21 [Selumetinib] (first compound max 1 µM, 7x7, partner max 3 µM), the Bliss excess was -0.0298 in [1]; -0.0539 in assay [2]; 0.0061 in [3]; -0.0303 in [4]; -0.0148 in assay [5]; 0.0237 in [6]. The Bliss excess in assay [7] was -0.043; in assay [8], -0.0135; in [9], -0.0042; in assay [10], -0.0102; in assay [11] it was 0.0303; in assay [12] it was 0.0027. Besides, the Bliss excess is -0.068 in assay [13]; -0.0293 in [14]; 0.0054 in assay [15]; -0.0297 in [16]; -0.0062 in assay [17]; -0.0133 in assay [18]. Besides, the Bliss excess in [19] was -0.0424; in [20], -0.0588.
